# Test results from PMC8587151, “Dibenzofuran Derivatives Inspired from Cercosporamide as Dual Inhibitors of Pim and CLK1 Kinases” (Molecules, 2021).
# Several values for one entry are separate records, joined by “and”; a condition that tells them apart may be missing. Equal values may be shown once. Read-outs that look alike come from different tables or passages of the source.
# How the values were obtained:
# Pim-2 = conditions: Figure 1; cited from earlier work
# Pim-1 = conditions: Figure 1; cited from earlier work
# HsPim-1 = target: T1, HsPim-1 (Homo sapiens, UniProt P11309); experiment: Kinase assay, luminescent ADP-Glo, 10 µM ATP; assay type: biochemical; conditions: ADP-Glo, 10 µM ATP
# T1 construct: made in house; host or cells: Escherichia coli BL21 DE3 pLysS
# Method: (§1) The synthesized compounds were tested using a luminescence-based assay against a panel of nine kinases: Pim-1, Pim-2, CDK5/p25, CDK9/CyclinT, Haspin, CK1ε, and GSK3β (from human); DYRK1A (from Rattus norvegicus); and CLK1 (from Mus musculus).
# (§2) Kinase enzymatic activities were assayed with 10 µM ATP in 384-well plates using the luminescent ADP-Glo^TM assay (Promega, Madison, WI, USA) according to the recommendations of the manufacturer (see [56] for details on this method). The transmitted signal was measured using the Envision (PerkinElmer, Waltham, MA, USA) microplate luminometer and expressed in relative light unit (RLU). In order to determine the half maximal inhibitory concentration (IC50), the assays were performed in duplicate in the absence or presence of increasing doses of the tested compounds. GraphPad Prism6 software (GraphPad Software, San Diego, CA, USA) was used to fit dose–response curves and to determine the IC50 values. Kinase activities are expressed in % of maximal activity, i.e., measured in the absence of inhibitor. Peptide substrates were obtained from Proteogenix (Schiltigheim, France).
# (§3) For kinases expressed in bacteria, the Escherichia coli BL21 DE3 pLysS strain (Invitrogen, ThermoFisher Scientific, Waltham, MA, USA) was transformed with pGEX-2T-1 (Sigma-Aldrich, St. Louis, MO, USA) containing the coding region of the corresponding kinase. For kinases expressed in Sf9 insect cells, the coding region of the corresponding kinase was cloned in pFastBac^TM vector. Purification of the recombinant kinases was performed following the protocol “Bac-to-Bac® Baculovirus Expression System” provided by the manufacturer (Invitrogen, ThermoFisher Scientific, Waltham, MA, USA).
# (§4) To validate the kinase assay, model inhibitors were used for each tested enzyme: Staurosporine from Streptomyces sp. (#S5921, purity ≥ 95%, Sigma-Aldrich) for HsCK1ε; Indirubin-30-oxime (#I0404, purity ≥ 98%, Sigma-Aldrich) for HsGSK-3β, HsPim-1 and 2, human cyclin-dependent kinases, RnDYRK1A and MmCLK1; CHR-6494 (#SML0648, purity ≥ 98%, Sigma-Aldrich) for Haspin.
# L929 cells = experiment: MTT assay, in vitro toxicity on normal cells; assay type: cell-based; conditions: 72 h, normal mouse fibroblasts
# From the text: (§5) Various types of hematological malignancies were selected for in vitro testing: the human acute myeloid leukemia (AML) cell line MV4-11, and the human chronic myeloid leukemia (CML) cell lines KU812 and K562. Indeed, Pim kinases are overexpressed in a wide range of hematopoietic malignancies. Solid tumors were also included in the panel of tested cell lines: MCF-7 (human breast adenocarcinoma), HT-29 (human colon adenocarcinoma), and HeLa (human cervical cancer) cells. Cytotoxic effects were evaluated using an MTT assay, and living cells were also counted with the trypan blue dye exclusion method for MV4-11, KU812, and K562 cells.
# (§6) The cancer cell lines MCF-7, HT-29, and HeLa were obtained from Cell Bank of Rio de Janeiro, Brazil, and were grown in RPMI-1640 medium and L929 cells were grown in Dulbecco’s Modified Eagle’s Medium (DMEM). Both media were supplemented with fetal bovine serum (FBS) (10% of the final concentration) followed by treatment with penicillin and streptomycin as antibiotics (1% of the final concentration). The crude was incubated in the presence of CO2 atmosphere (5%) for 24 h with the temperature monitored and maintained at 37 °C.
# (§7) MCF-7, HT-29, HeLa, and L929 cells (3×10^5 cells/mL) were plated in 96-well plates and incubated in the presence of CO2 atmosphere (5%) for 24 h at 37 °C. […] Then, 25 μL of MTT (5 mg/mL in PBS) were added to each well and the plates were left for another 3 h in the incubator at 37 °C and at the end of this period, the supernatant was aspirated. To perform the reading, 100 μL of dimethylsulfoxide (DMSO) were added in each well for the dissolution of the formazan crystals. The amount of formazan was measured by reading the plate at 560 nm absorbance. […] Each sample was tested in triplicate in two independent experiments.
# HeLa cells = experiment: MTT cytotoxicity assay; assay type: cell-based; conditions: Homo sapiens, 72 h
# From the text: as §5, §6, §7
# MCF-7 cells = experiment: MTT cytotoxicity assay; assay type: cell-based; conditions: Homo sapiens, MCF7, 72 h
# From the text: as §5, §6, §7
# MV4-11 cells = experiment: MTT cell proliferation assay; assay type: cell-based, human; conditions: mean ± SEM; for IC50: Homo sapiens, MV4-11, 48 h
# From the text: as §5
# (§8) MV4-11, K562, and KU812 cell lines were obtained from the Deutshe Sammlung von Mikroorganismens und Zellkulturen (DSMZ) and maintained according to the supplier’s recommendations. All cell lines were cultured in RPMI, with 10% fetal bovine serum, 1% glutamine, and 1% penicillin/ streptomycin at 37 °C and 5% CO2.
# (§9) MV4-11, K562, and KU812 cells’ viability was studied using a MTT cell proliferation assay.
# (§10) MV4-11, K562, and KU812 cells were incubated with 10 μL of MTT working solution (5 g/L of methylthiazolyldiphenyl-tetrazolium bromide from Sigma Aldrich, Lyon, France) for 4 h. Cells were then lysed overnight at 37 °C with 100 μL of 10% SDS and 0.003% HCl. Optical density (OD) at 570 nm was measured using a spectrophotometer CLARIOstar® (BMG Labtech, Offenburg, Germany). Living cells were also counted with the trypan blue dye exclusion method. […] Data were collected from at least three independent experiments and the values reported are means ± standard errors of the mean (SEM).
# K562 cells = experiment: MTT cell proliferation assay; assay type: cell-based; conditions: Homo sapiens, 48 h, mean ± SEM
# From the text: as §5, §8, §9, §10
# KU812 cells = experiment: MTT cell proliferation assay; assay type: cell-based; conditions: Homo sapiens, 48 h, mean ± SEM
# From the text: as §5, §8, §9, §10
# MmCLK1 = target: T2, MmCLK1 (Mus musculus, UniProt P22518); experiment: Kinase assay, luminescent ADP-Glo, 10 µM ATP; assay type: biochemical; conditions: for IC50: ADP-Glo, 10 µM ATP, duplicate, read-out: Kinase Enzymatic IC50 CLK1
# T2 construct: made in house; host or cells: Escherichia coli BL21 DE3 pLysS
# Method: as §1, §2, §3, §4
# HsCDK5/p25 = target: T3, HsCDK5/p25 (Homo sapiens, UniProt Q00535); experiment: Kinase assay, luminescent ADP-Glo, 10 µM ATP; assay type: biochemical; conditions: duplicate, read-out: Kinase Enzymatic IC50 CDK5/p25
# T3 construct: made in house; host or cells: Escherichia coli BL21 DE3 pLysS
# Method: as §1, §2, §3, §4
# HsPim-2 = target: T4, HsPim-2 (Homo sapiens, UniProt Q9P1W9); experiment: Kinase assay, luminescent ADP-Glo, 10 µM ATP; assay type: biochemical; conditions: mean of n ≥ 3, read-out: IC50 Pim-2
# T4 construct: made in house; host or cells: Escherichia coli BL21 DE3 pLysS
# Method: as §1, §2, §3, §4
# HsCDK9/CyclinT = target: T5, HsCDK9/CyclinT (Homo sapiens, UniProt P50750); experiment: Kinase assay, luminescent ADP-Glo, 10 µM ATP; assay type: biochemical; conditions: duplicate, read-out: Kinase Enzymatic IC50 CDK9/CyclinT
# T5 construct: made in house; host or cells: Sf9 insect cells (baculovirus, pFastBac)
# Method: as §1, §2, §3, §4
# RnDYRK1A-kd = RnDYRK1A-kd (Rattus norvegicus, UniProt Q63470); experiment: Kinase assay, luminescent ADP-Glo, 10 µM ATP; assay type: biochemical; conditions: read-out: IC50 DYRK1A
# Method: as §1, §2, §3, §4
# [1] = Table 1, duplicate, read-out: Kinase Enzymatic IC50 Pim-1
# [2] = Table 2, mean of n ≥ 3, read-out: IC50 Pim-1
# T1 sequence (P11309 whole entry): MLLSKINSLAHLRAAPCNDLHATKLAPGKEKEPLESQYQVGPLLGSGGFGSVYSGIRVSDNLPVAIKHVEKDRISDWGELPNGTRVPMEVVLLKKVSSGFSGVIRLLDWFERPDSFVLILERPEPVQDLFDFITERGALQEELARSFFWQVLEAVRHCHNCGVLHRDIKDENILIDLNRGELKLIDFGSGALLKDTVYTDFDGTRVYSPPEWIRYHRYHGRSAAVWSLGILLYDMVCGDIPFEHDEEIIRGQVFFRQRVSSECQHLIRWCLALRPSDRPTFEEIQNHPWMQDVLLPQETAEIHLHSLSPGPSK
# T2 sequence (P22518 whole entry): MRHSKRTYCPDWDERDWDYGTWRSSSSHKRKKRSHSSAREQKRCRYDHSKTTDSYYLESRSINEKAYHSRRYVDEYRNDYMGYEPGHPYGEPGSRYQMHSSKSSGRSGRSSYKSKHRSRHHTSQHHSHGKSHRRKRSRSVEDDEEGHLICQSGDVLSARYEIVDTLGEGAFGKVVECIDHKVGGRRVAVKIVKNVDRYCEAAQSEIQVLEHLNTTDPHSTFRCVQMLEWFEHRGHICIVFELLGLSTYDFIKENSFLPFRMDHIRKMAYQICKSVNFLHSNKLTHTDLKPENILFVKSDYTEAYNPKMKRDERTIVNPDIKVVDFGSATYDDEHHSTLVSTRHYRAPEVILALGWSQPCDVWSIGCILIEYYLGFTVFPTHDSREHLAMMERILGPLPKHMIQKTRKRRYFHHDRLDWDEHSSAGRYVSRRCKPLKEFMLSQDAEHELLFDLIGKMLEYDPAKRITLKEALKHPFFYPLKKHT
# T3 sequence (Q00535 whole entry): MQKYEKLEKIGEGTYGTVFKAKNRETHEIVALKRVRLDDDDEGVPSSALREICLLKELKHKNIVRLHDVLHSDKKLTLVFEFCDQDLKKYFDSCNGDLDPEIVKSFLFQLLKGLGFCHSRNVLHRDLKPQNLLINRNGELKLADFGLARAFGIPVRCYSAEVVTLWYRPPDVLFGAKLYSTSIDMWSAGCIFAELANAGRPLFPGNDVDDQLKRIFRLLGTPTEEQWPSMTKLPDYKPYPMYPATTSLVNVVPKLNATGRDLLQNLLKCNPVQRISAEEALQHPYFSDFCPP
# T3 sequence (Q15078 99-307 partner limits assumed): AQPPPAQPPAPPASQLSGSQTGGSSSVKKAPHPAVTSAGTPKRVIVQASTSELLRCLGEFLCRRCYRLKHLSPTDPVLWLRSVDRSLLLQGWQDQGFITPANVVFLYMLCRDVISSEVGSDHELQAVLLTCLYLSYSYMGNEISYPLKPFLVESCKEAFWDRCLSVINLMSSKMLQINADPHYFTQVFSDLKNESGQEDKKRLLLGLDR
# T5 sequence (P50750 whole entry): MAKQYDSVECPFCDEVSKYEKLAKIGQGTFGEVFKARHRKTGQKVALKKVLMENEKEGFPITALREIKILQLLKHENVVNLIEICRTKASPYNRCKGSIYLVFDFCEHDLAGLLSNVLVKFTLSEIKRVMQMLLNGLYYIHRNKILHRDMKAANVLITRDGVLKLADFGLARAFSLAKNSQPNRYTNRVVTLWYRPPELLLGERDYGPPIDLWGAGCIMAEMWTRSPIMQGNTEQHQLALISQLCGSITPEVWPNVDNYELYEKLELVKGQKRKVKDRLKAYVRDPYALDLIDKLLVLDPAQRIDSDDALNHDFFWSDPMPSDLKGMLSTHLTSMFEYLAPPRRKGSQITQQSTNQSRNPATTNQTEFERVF
# T5 sequence (O60563 whole entry partner): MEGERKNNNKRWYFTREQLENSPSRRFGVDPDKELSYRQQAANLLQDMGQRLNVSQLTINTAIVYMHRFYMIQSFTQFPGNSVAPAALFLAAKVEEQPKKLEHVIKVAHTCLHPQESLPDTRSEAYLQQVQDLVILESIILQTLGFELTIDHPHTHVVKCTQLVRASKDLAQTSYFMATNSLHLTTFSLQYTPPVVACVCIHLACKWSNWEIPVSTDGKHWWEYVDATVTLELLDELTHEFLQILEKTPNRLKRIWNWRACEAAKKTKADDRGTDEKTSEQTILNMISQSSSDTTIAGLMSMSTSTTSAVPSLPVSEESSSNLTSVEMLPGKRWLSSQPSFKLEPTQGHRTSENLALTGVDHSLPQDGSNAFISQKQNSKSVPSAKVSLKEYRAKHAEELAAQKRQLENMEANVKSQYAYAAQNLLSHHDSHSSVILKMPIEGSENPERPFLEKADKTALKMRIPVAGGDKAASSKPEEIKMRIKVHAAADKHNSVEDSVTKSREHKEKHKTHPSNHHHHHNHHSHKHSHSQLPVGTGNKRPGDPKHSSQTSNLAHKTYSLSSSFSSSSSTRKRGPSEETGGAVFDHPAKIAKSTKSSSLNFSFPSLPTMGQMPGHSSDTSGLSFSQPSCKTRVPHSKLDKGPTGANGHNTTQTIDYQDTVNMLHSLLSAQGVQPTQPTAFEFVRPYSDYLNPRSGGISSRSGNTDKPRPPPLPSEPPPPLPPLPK
# T4 sequence (Q9P1W9 whole entry): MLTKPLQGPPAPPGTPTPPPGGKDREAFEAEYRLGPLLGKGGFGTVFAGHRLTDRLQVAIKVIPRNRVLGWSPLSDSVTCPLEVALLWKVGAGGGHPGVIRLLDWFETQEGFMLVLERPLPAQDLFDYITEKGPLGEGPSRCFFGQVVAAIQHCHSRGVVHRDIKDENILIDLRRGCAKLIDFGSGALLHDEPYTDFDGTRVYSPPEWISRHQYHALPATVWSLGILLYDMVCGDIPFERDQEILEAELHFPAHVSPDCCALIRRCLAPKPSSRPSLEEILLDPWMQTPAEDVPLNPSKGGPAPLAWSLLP
IC50 (HsPim-1; [1]),melting point,IC50 (HsPim-1; [2]),IC50 (MV4-11 cells),IC50 (K562 cells),Structure (SMILES),IC50 (L929 cells),IC50 (HeLa cells),IC50 (MCF-7 cells),IC50 (KU812 cells),other results
,,,,,CC(=O)C1=C(O)C=C2Oc3c(C(C)=O)c(O)c(C)c(O)c3[C@@]2(C)C1=O [(+)-Usnic acid],,,,,IC50 (Pim-2): 0.58 µM; IC50 (Pim-1): 0.21 µM
3.21 µM,298 to 299 °C,,,,"COc1cc(OC)c2c(oc3c([N+](=O)[O-])cccc32)c1C(N)=O [Compound 14, 1,3-Dimethoxy-6-nitrodibenzo[b,d]furan-4-carboxamide]",,,,,
0.18 µM,> 300 °C,0.18 µM,30.7 ± 1.1 µM,> 100 µM,"NC(=O)c1c(O)cc(O)c2c1oc1c([N+](=O)[O-])cccc12 [Compound 15, 1,3-Dihydroxy-6-nitrodibenzo[b,d]furan-4-carboxamide]",49.2 ± 1 µM,24.7 ± 6.7 µM,> 100 µM,78.4 ± 2.1 µM,
0.13 µM,,0.13 µM,10.1 ± 0.8 µM,> 100 µM,"NC(=O)c1c(O)cc(O)c2c1oc1c(N)cccc12 [Compound 16, 6-Amino-1,3-dihydroxydibenzo[b,d]furan-4-carboxamide]",> 100 µM,14.6 ± 7.2 µM,> 100 µM,> 100 µM,IC50 (MmCLK1): 0.45 µM; IC50 (HsCDK5/p25): > 10 µM; IC50 (HsPim-2): 0.085 µM; IC50 (HsCDK9/CyclinT): > 10 µM
0.23 µM,219 to 220 °C,0.23 µM,14.3 ± 1.1 µM,> 100 µM,"NC(=O)c1c(O)cc(O)c2c1oc1ccccc12 [Compound 17, 1,3-Dihydroxydibenzo[b,d]furan-4-carboxamide]",> 100 µM,9.5 ± 4.1 µM,> 100 µM,> 100 µM,IC50 (MmCLK1): 0.26 µM
> 10 µM,293 to 294 °C,,,,"COc1cc(OC)c2c(oc3c(N)cccc32)c1C(N)=O [Compound 18, 6-Amino-1,3-dimethoxydibenzo[b,d]furan-4-carboxamide]",,,,,
> 10 µM,296 to 297 °C,,,,"COc1cc(OC)c2c(oc3ccccc32)c1C(N)=O [Compound 19, 1,3-Dimethoxydibenzo[b,d]furan-4-carboxamide]",,,,,
> 10 µM,,,,,"COc1cc2oc3c(C(N)=O)c(OC)cc(OC)c3c2cc1C(C)=O [Compound 38, 8-Acetyl-1,3,7-trimethoxydibenzo[b,d]furan-4-carboxamide]",,,,,
> 10 µM,332 to 333 °C,,,,"COc1ccc2c(c1)oc1c(C(N)=O)c(OC)cc(OC)c12 [Compound 39, 1,3,7-Trimethoxydibenzo[b,d]furan-4-carboxamide]",,,,,
> 10 µM,237 to 238 °C,,,,"COc1cc(OC)c2c(oc3ccc(C(C)=O)cc32)c1C(N)=O [Compound 40, 8-Acetyl-1,3-dimethoxydibenzo[b,d]furan-4-carboxamide]",,,,,
> 10 µM,230 to 231 °C,,,,"COc1cc(OC)c2c(oc3ccc(F)cc32)c1C(N)=O [Compound 41, 8-Fluoro-1,3-dimethoxydibenzo[b,d]furan-4-carboxamide]",,,,,IC50 (RnDYRK1A-kd): 1.33 µM
> 10 µM,250 to 251 °C,,,,"COc1cc(OC)c2c(oc3ccc(C(F)(F)F)cc32)c1C(N)=O [Compound 42, 1,3-Dimethoxy-8-(trifluoromethyl)dibenzo[b,d]furan-4-carboxamide]",,,,,
0.82 µM,335 to 336 °C,0.82 µM,52.2 ± 1.7 µM,> 100 µM,"CC(=O)c1cc2c(cc1O)oc1c(C(N)=O)c(O)cc(O)c12 [Compound 43, 8-Acetyl-1,3,7-trihydroxydibenzo[b,d]furan-4-carboxamide]",> 100 µM,57.1 ± 7.6 µM,> 100 µM,> 100 µM,IC50 (HsPim-2): 0.14 µM
0.06 µM,,0.06 µM,2.6 ± 0.4 µM,75.7 ± 11.8 µM,"NC(=O)c1c(O)cc(O)c2c1oc1cc(O)ccc12 [Compound 44, 1,3,7-Trihydroxydibenzo[b,d]furan-4-carboxamide]",28.4 ± 1.1 µM,10.2 ± 1.2 µM,52.5 ± 1.2 µM,42.1 ± 1.3 µM,IC50 (MmCLK1): 0.026 µM; IC50 (HsCDK5/p25): > 10 µM; IC50 (HsPim-2): 0.035 µM; IC50 (HsCDK9/CyclinT): > 10 µM
0.28 µM,,0.28 µM,8.8 ± 0.9 µM,> 100 µM,"CC(=O)c1ccc2oc3c(C(N)=O)c(O)cc(O)c3c2c1 [Compound 45, 8-Acetyl-1,3-dihydroxydibenzo[b,d]furan-4-carboxamide]",> 100 µM,59.6 ± 7.6 µM,> 100 µM,69.4 ± 12.9 µM,IC50 (MmCLK1): 0.14 µM; fold less active than 44 against CLK1 (MmCLK1; ratio of IC50 values): 5 fold; IC50 (HsCDK5/p25): > 10 µM; IC50 (HsPim-2): 0.12 µM; IC50 (HsCDK9/CyclinT): > 10 µM
> 1 µM and 2.35 µM,347 to 348 °C,2.35 µM,> 100 µM,> 100 µM,"NC(=O)c1c(O)cc(O)c2c1oc1ccc(C(F)(F)F)cc12 [Compound 47, 1,3-Dihydroxy-8-(trifluoromethyl)dibenzo[b,d]furan-4-carboxamide]",,,,> 100 µM,IC50 MV4-11 (MV4-11 cells; 48 h): inactive
,,,0.03 ± 0.003 µM,3.7 ± 1.5 µM,"CN1CCC(CNc2ccc3ncc(-c4cccc(OC(F)(F)F)c4)n3n2)CC1 [SGI-1776, reference compound]",,,,3.5 ± 0.6 µM,
